Reference: patent US6787541B1, “Thieno-and furopyrimidine derivatives as A2A-receptor antagonists” (Vernalis Research Limited, priority 1999, dated 2004)
Structures can show the parent of a compound that is named as a salt.

Compound `COC(=O)[C@@H]1CCCN1c1nc(C(=O)c2cccs2)c2sccc2n1` [Example 115, (2S)-N-(4-(2-Thienylcarbonyl)thieno[3,2-d]pyrimidin-2-yl)proline methyl ester] has a melting point of 155.9 to 156.3 °C. In the case of `O=C(c1ccc(Cl)cc1)c1nc(C(F)(F)F)nc2ccsc12` [Example 30, 4-Chlorophenyl 2-trifluoromethylthieno[3,2-d]pyrimidin-4-ylmethanone], the melting point is reported as 127 to 128 °C. For `CN(C)CCNc1nc(C(=O)c2cccs2)c2sccc2n1` (as salt: hydrochloride) [Example 66, 2-(2-Dimethylaminoethylamino)thieno[3,2-d]pyrimidin-4-yl 2-thienylmethanone dihydrochloride], the melting point was > 150 °C (dec.). `O=C(c1cc2ccccc2o1)c1nc(C(F)(F)F)nc2ccsc12` [Example 15, 2-Benzofuranyl 2-trifluoromethylthieno[3,2-d]pyrimidin-4-ylmethanone] gave a melting point of 221 to 223 °C. In the case of `CN(C)c1nc(C(=O)c2ccco2)c2sccc2n1` [Example 105, 2-Dimethylaminothieno[3,2-d]pyrimidin-4-yl 2-furylmethanone], the melting point is reported as 210 to 212 °C. `Cc1csc2c(C(=O)c3cccs3)nc(Cl)nc12` [Example 24, 2-Chloro-7-methylthieno[3,2-d]pyrimidin-4-yl 2-thienylmethanone] showed a melting point of 188 to 190 °C. Work on `Cc1ccc(C(=O)c2nc(C(F)(F)F)nc3ccsc23)s1` yielded a melting point of 161 to 163 °C. `O=C(c1cccc(Cl)c1)c1nc(C(F)(F)F)nc2ccsc12` [Example 9, 3-Chlorophenyl 2-trifluoromethylthieno[3,2-d]pyrimidin-4-ylmethanone] showed a melting point of 128 to 130 °C. With `O=C(c1cccs1)c1nc(N2CCC[C@@H]2C(=O)O)nc2ccsc12` [Example 121, (2R)-N-(4-(2-Thienylcarbonyl)thieno[3,2-d]pyrimidin-2-yl)proline] the melting point was > 131 °C (dec.). `CN(CCN)c1nc(C(=O)c2cccs2)c2sccc2n1` [Example 120, 2-(N-(2-Aminoethyl)-N-methylamino)thieno[3,2-d]pyrimidin-4-yl 2-thienylmethanone] showed a melting point of 151.6 to 152.4 °C. For `CN(C)CC(=O)Nc1nc(C(=O)c2cccs2)c2sccc2n1` (as salt: hydrochloride) [Example 169, 2-Dimethylamino-N-(4-(2-thienylcarbonyl)thieno[3,2-d]pyrimidin-2-yl)acetamide hydrochloride], the melting point was 151 °C. In the case of `Cc1nc(C(O)c2cccs2)c2sccc2n1` (stereo not drawn) [Example 53, 2-Methyl-α-(2-thienyl)thieno[3,2-d]pyrimidine-4-methanol], the melting point is reported as 144 to 146 °C. For `O=C(c1cccnc1)c1nc(NCCO)nc2ccsc12` [Example 106, 2-(2-Hydroxyethylamino)thieno[3,2-d]pyrimidin-4-yl 3-pyridylmethanone], the melting point was 161 to 163 °C. `Cc1cccc(C(=O)c2nc(C(F)(F)F)nc3ccsc23)c1` [Example 32, 3-Methylphenyl 2-trifluoromethylthieno[3,2-d]pyrimidin-4-ylmethanone] showed a melting point of 131 to 133 °C. With `CS(=O)(=O)NNc1nc(C(=O)c2cccs2)c2sccc2n1` [Example 128, Methanesulphonic acid 2-(4-(2-thienylcarbonyl)thieno[3,2-d]pyrimidin-2-yl)hydrazide] the melting point was 242.1 to 242.7 °C. Compound `Cc1ccsc1C(=O)c1nc(NCCCn2ccnc2)nc2ccsc12` [Example 132, 2-(3-(1H-imidazol-1-yl)propylamino)thieno[3,2-d]pyrimidin-4-yl 3-methyl-2-thienylmethanone] has a melting point of 138.1 to 138.7 °C. `Cc1csc2c(C(=O)c3cccs3)nc(N(C)C)nc12` [Example 38, 2-Dimethylamino-7-methylthieno[3,2-d]pyrimidin-4-yl 2-thienylmethanone] showed a melting point of 156 to 158 °C. Compound `Cc1ccsc1C(=O)c1nc(N(C)C)nc2ccsc12` [Example 117, 2-Dimethylaminothieno[3,2-d]pyrimidin-4-yl 3-methyl-2-thienylmethanone] has a melting point of 165.1 to 165.7 °C.
